Reference: ChEMBL document CHEMBL1201862, “PubChem BioAssay data set” (2004)
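Protocol summary: plate cells (96-well), add compound at 5 concentrations, incubate 48 h, interpolate endpoints linearly. GI50 is the concentration that inhibits growth by half.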 Active and inactive are the calls of the source. Cut-off read from the data, not from the text of the source: active = GI50 up to about 1.1 µM and inactive = higher.

Key:
Assay in all cases: NCI tumour cell line growth inhibition, 48 h
[1] = tested on: OVCAR-8
[2] = tested on: HL-60
[3] = tested on: MDA-N
[4] = tested on: MDA-MB-231
[5] = tested on: NCI-H522
[6] = tested on: HCT-15
[7] = tested on: K562
[8] = tested on: CCRF-CEM
[9] = tested on: SNB-19
[10] = tested on: HCT-116
[11] = tested on: HCC 2998
[12] = tested on: M14
[13] = tested on: MDA-MB-435
[14] = tested on: SN12C
[15] = tested on: NCI-H460
[16] = tested on: SK-MEL-28
[17] = tested on: OVCAR-5
[18] = tested on: KM12
[19] = tested on: SW-620
[20] = tested on: BT-549

Row | SMILES | GI50 [1] | GI50 [2] | GI50 [3] | GI50 [4] | GI50 [5] | GI50 [6] [µM] | GI50 [7] | GI50 [8] | GI50 [9] | GI50 [10] | GI50 [11] | GI50 [12] | GI50 [13] | GI50 [14] | GI50 [15] | GI50 [16] | GI50 [17] | GI50 [18] | GI50 [19] | GI50 [20]
1 | CC1=NN(C(=O)CC(=O)Nc2ccccc2)C(=O)C1/N=N/c1ccc(C(=O)O)cc1 (stereo not given) | > 100 µM (inactive) | > 100 µM (inactive) | > 100 µM (inactive) | > 100 µM (inactive) | > 100 µM (inactive) | > 100 | > 100 µM (inactive) | > 100 µM (inactive) | 80.5 µM (inactive) | > 100 µM (inactive) | > 100 µM (inactive) | > 100 µM (inactive) | > 100 µM (inactive) | > 100 µM (inactive) | > 100 µM (inactive) | > 100 µM (inactive) | > 100 µM (inactive) | > 100 µM (inactive) | > 100 µM (inactive) | > 100 µM (inactive)
2 | CCOc1ccc(-n2c(=O)c3nn4c(=O)n(-c5ccc(OCC)cc5)c(=O)c4nn3c2=O)cc1 | > 100 µM (inactive) | > 100 µM (inactive) | > 100 µM (inactive) | 71.8 µM (inactive) | > 100 µM (inactive) | > 100 | > 100 µM (inactive) | > 10 µM (inactive) | 63 µM (inactive) | > 100 µM (inactive) | > 100 µM (inactive) | > 100 µM (inactive) | > 100 µM (inactive) | > 100 µM (inactive) | > 100 µM (inactive) | > 100 µM (inactive) | > 100 µM (inactive) | > 100 µM (inactive) | > 100 µM (inactive) | 64.6 µM (inactive)
3 | O=C(CC(c1ccccc1)N1CCCCC1)c1ccccc1 (stereo not given) | 15.5 µM (inactive) | 12.5 µM (inactive) | 12.2 µM (inactive) | 18.9 µM (inactive) | 12.9 µM (inactive) | 14.9 | 1.44 µM (inactive) | 2.09 µM (inactive) | 19.6 µM (inactive) | 7.31 µM (inactive) | 4.62 µM (inactive) | 21.5 µM (inactive) | 12.2 µM (inactive) | 15.6 µM (inactive) | 13 µM (inactive) | 17.8 µM (inactive) | 17.5 µM (inactive) | 6.82 µM (inactive) | 4.06 µM (inactive) | 18.2 µM (inactive)
4 | COc1ccc(/N=N/C(=NNC(=O)c2ccc(C)cc2)c2ccc(N(C)C)cc2)cc1 | 40.3 µM (inactive) | 2.32 µM (inactive) | 23.8 µM (inactive) | 64.4 µM (inactive) | 28.9 µM (inactive) | 32.4 | 29.4 µM (inactive) | 14 µM (inactive) | 61.2 µM (inactive) | 34.4 µM (inactive) | 35.3 µM (inactive) | 43.1 µM (inactive) | 20.1 µM (inactive) | 56.6 µM (inactive) | 39.7 µM (inactive) | > 59.7 µM (inactive) | > 85.9 µM (inactive) | 30.1 µM (inactive) | 56.8 µM (inactive) | 27.7 µM (inactive)
5 | [N-]=[N+]=C(C(=O)OCC#CCOC(=O)C(=[N+]=[N-])S(=O)(=O)c1ccccc1)S(=O)(=O)c1ccccc1 | > 10 µM (inactive) | > 10 µM (inactive) | > 10 µM (inactive) | > 10 µM (inactive) | > 10 µM (inactive) | > 10 | > 10 µM (inactive) | > 10 µM (inactive) | > 10 µM (inactive) | > 10 µM (inactive) | > 10 µM (inactive) | > 10 µM (inactive) | > 10 µM (inactive) | > 10 µM (inactive) | > 10 µM (inactive) | > 10 µM (inactive) | > 10 µM (inactive) | > 10 µM (inactive) | > 10 µM (inactive) | > 10 µM (inactive)
6 | CC(C)c1cc(Cl)nc(Cl)n1 | > 100 µM (inactive) | > 100 µM (inactive) | > 100 µM (inactive) | > 100 µM (inactive) | > 100 µM (inactive) | > 100 | > 100 µM (inactive) | > 100 µM (inactive) | > 100 µM (inactive) | > 100 µM (inactive) | > 100 µM (inactive) | > 100 µM (inactive) | > 100 µM (inactive) | > 100 µM (inactive) | > 100 µM (inactive) | > 100 µM (inactive) | > 100 µM (inactive) | > 100 µM (inactive) | > 100 µM (inactive) | > 100 µM (inactive)
7 | CN(C)c1ccc(/C=c2/c3ccccc3n3c2cc(/C=C/c2ccccc2)[n+]3C)cc1 | 0.0773 µM (active) | 0.0927 µM (active) | 0.249 µM (active) | 0.261 µM (active) | 0.108 µM (active) | 0.881 | 0.0951 µM (active) | 0.0206 µM (active) | 0.217 µM (active) | 0.0824 µM (active) | 0.121 µM (active) | 0.218 µM (active) | 0.135 µM (active) | 0.0841 µM (active) | 0.185 µM (active) | 0.269 µM (active) | 0.502 µM (active) | 0.167 µM (active) | 0.0916 µM (active) | 0.08 µM (active)
8 | Cc1ccnc2[nH]c3ccccc3c(=O)c12 | 27 µM (inactive) | 15.1 µM (inactive) | 21 µM (inactive) | 38.8 µM (inactive) | 15.2 µM (inactive) | 25.5 | 33.2 µM (inactive) | 36.6 µM (inactive) | 29.6 µM (inactive) | 16.6 µM (inactive) | 19.9 µM (inactive) | 26.8 µM (inactive) | 19.6 µM (inactive) | 21.3 µM (inactive) | 19 µM (inactive) | 15.1 µM (inactive) | 23.8 µM (inactive) | 13.1 µM (inactive) | 35.9 µM (inactive) | 30.1 µM (inactive)
9 | NCCCN(CCCCN(CCCN)Cc1ccccc1)Cc1ccccc1 | 49.5 µM (inactive) | > 100 µM (inactive) | 18.4 µM (inactive) | > 100 µM (inactive) | 10.9 µM (inactive) | > 100 | 54.2 µM (inactive) | 30.3 µM (inactive) | 10.7 µM (inactive) | 30.8 µM (inactive) | 10.8 µM (inactive) | 41.6 µM (inactive) | 56.1 µM (inactive) | 16 µM (inactive) | 15.3 µM (inactive) | > 100 µM (inactive) | 17.5 µM (inactive) | 30.4 µM (inactive) | > 100 µM (inactive) | 79.6 µM (inactive)
10 | CCOC(=O)c1nc2cc(C(F)(F)F)ccc2nc1Oc1ccc(C#N)cc1 | > 100 µM (inactive) | 71.8 µM (inactive) | > 100 µM (inactive) | > 100 µM (inactive) | > 100 µM (inactive) | > 100 | 70.6 µM (inactive) | 70 µM (inactive) | > 100 µM (inactive) | 16.8 µM (inactive) | 80 µM (inactive) | > 100 µM (inactive) | > 100 µM (inactive) | > 100 µM (inactive) | > 100 µM (inactive) | > 100 µM (inactive) | > 100 µM (inactive) | > 100 µM (inactive) | > 100 µM (inactive) | > 100 µM (inactive)
11 | O=c1oc2nc(-c3ccccc3)cc(C(F)(F)F)c2n1Cc1ccccc1 | 42.4 µM (inactive) | 2.15 µM (inactive) | 0.689 µM (active) | > 24.4 µM (inactive) | 4.33 µM (inactive) | 1.87 | 1.53 µM (inactive) | 7.21 µM (inactive) | 6.52 µM (inactive) | 3.13 µM (inactive) | > 25.8 µM (inactive) | 4.33 µM (inactive) | 0.659 µM (active) | 5.9 µM (inactive) | > 100 µM (inactive) | 50.1 µM (inactive) | > 100 µM (inactive) | 2.84 µM (inactive) | 6.5 µM (inactive) | 19.7 µM (inactive)
12 | CC(O)C(O)C(O)C(/C=N\Nc1ccccc1)=N/Nc1ccccc1 (stereo not given) | 13.2 µM (inactive) | 12.6 µM (inactive) | 12.6 µM (inactive) | 12.3 µM (inactive) | 8.09 µM (inactive) | 12.4 | 6.78 µM (inactive) | 18.5 µM (inactive) | 15.7 µM (inactive) | 15.3 µM (inactive) | 10.8 µM (inactive) | 13.3 µM (inactive) | 13.4 µM (inactive) | 16 µM (inactive) | 10.7 µM (inactive) | 16.6 µM (inactive) | 13.9 µM (inactive) | 4.7 µM (inactive) | 11.6 µM (inactive) | 13.7 µM (inactive)
13 | Cc1ccc2nc(-c3ccc(NC(=O)c4ccc(N)cc4)c(S(=O)(=O)O)c3)sc2c1 | > 100 µM (inactive) | > 100 µM (inactive) | > 100 µM (inactive) | > 100 µM (inactive) | > 100 µM (inactive) | > 100 | > 100 µM (inactive) | > 100 µM (inactive) | > 100 µM (inactive) | > 100 µM (inactive) | > 100 µM (inactive) | > 100 µM (inactive) | > 100 µM (inactive) | > 100 µM (inactive) | > 100 µM (inactive) | > 100 µM (inactive) | > 100 µM (inactive) | > 100 µM (inactive) | > 100 µM (inactive) | > 100 µM (inactive)
